From patent publication US20220220128A1, “HETEROCYCLIC COMPOUNDS AS KINASE INHIBITORS, COMPOSITIONS COMPRISING THE HETEROCYCLIC COMPOUND, AND METHODS OF USE THEREOF” (JS Innopharm (Shanghai) Ltd, priority 2019, published 2022)
Read-outs that look alike come from different tables or passages of the source.

Experiments:
[1] = target: T1, human RET kinase (Homo sapiens, UniProt P07949); test: RET Kinase Assay (LanthaScreen TR-FRET enzymatic assay); type: biochemical; conditions: 7 nM RET, 23 μM ATP
T1 construct: purchased Carna 08-159
Outline: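 Human RET (7 nM) preincubated 15 min with compound in 50 mM HEPES pH 7.5, 0.0015% Brij-35, then reacted with 3 μM FAM-P2 peptide and 23 μM ATP for 1 h at 28° C.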

[2] = system: TT cells; test: TT Cell Proliferation Assay (WST-8, 8 days); type: cell-based; conditions: growth inhibition in TT cells, read-out: TT Cellular Activity
Outline: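 TT cells, 6,000/well in RPMI-1640 with 10% FBS, attached 24 h, then exposed to compound at 5 μM down to 0.0005 μM final (0.5% DMSO) for 8 days at 37 °C. WST-8 added for 5 h, absorbance at 450 nm. IC50 calculated from the dilution series.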

[3] = target: T2, human KDR kinase (Homo sapiens, UniProt P35968); test: KDR Kinase Assay (LanthaScreen TR-FRET enzymatic assay); type: biochemical; conditions: 1.2 nM KDR, 92 μM ATP
T2 construct: purchased Carna 08-191
Outline: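 Recombinant human KDR (1.2 nM) preincubated 15 min at room temperature with compound, then reacted with 3 μM FAM-P22 peptide and 92 μM ATP in 50 mM HEPES pH 7.5 for 1 h at 28° C. EDTA stop, then TR-FRET acceptor/donor ratio read; percent of 1% DMSO control fitted sigmoidally for IC50.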

T1 sequence (P07949 29-1114): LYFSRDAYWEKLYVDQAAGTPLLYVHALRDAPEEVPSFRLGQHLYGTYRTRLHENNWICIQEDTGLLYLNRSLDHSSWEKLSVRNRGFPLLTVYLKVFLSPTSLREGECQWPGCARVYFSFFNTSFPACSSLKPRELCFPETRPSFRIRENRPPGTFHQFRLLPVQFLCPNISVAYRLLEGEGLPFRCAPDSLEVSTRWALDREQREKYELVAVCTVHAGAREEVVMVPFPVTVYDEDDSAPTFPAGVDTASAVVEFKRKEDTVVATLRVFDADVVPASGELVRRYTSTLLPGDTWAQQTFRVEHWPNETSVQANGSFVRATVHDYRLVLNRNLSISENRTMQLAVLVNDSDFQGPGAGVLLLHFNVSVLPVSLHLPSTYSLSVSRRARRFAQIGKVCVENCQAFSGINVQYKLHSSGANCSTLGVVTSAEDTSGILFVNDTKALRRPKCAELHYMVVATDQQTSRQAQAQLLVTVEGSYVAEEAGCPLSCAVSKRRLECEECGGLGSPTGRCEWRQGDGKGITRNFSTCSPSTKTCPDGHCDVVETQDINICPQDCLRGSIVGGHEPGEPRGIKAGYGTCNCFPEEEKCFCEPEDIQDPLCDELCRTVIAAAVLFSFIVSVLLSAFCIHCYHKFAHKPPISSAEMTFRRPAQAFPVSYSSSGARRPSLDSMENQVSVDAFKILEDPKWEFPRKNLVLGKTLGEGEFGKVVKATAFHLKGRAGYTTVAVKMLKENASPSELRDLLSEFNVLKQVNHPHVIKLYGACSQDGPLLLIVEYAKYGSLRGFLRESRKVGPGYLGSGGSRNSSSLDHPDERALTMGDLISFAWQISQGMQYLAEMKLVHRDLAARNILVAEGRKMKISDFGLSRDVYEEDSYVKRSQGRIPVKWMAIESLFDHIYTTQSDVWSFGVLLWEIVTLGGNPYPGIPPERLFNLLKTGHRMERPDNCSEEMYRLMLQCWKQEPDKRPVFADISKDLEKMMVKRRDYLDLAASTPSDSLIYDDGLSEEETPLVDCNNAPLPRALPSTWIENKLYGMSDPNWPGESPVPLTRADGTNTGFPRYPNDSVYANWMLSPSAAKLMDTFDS
T2 sequence (P35968 20-1356): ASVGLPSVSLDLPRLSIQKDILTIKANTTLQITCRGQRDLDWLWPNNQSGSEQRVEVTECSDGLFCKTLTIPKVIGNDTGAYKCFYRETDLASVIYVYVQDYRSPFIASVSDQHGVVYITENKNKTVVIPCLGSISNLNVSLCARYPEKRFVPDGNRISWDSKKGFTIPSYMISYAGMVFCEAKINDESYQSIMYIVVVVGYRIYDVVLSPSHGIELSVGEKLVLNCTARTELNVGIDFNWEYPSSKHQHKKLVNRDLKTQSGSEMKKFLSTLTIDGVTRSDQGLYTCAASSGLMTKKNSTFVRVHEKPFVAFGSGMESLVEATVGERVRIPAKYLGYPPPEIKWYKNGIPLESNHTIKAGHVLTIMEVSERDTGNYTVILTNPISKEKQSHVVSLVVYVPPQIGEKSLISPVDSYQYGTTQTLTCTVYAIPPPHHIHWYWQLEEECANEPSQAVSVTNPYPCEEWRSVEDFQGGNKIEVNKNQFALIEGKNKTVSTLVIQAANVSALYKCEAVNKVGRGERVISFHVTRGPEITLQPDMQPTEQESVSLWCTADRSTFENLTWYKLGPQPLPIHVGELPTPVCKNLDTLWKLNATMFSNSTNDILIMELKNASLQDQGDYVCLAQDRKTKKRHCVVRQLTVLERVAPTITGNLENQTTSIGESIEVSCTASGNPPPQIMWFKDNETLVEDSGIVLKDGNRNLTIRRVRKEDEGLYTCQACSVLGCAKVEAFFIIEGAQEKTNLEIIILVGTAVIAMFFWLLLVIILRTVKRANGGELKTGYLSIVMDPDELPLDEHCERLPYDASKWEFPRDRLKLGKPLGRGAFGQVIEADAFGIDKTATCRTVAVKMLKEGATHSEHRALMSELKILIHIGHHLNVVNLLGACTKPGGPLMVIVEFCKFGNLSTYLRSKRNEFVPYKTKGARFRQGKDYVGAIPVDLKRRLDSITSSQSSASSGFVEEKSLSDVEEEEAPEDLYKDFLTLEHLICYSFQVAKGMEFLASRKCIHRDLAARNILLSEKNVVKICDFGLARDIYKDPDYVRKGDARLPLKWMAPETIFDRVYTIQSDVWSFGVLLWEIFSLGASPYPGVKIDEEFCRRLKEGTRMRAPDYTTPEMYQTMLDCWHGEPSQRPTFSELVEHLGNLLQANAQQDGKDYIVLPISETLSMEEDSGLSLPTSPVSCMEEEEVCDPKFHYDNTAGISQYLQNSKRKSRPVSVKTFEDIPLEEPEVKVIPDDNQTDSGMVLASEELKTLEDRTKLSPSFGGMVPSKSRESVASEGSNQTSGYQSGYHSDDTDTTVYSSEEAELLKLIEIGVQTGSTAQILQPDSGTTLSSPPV

| IC50 [1] [nM] | IC50 [3] [nM] | Structure (SMILES) | IC50 ([2]; Homo sapiens, TT, 192 h) [nM] | IC50 [2] [nM] |
| --- | --- | --- | --- | --- |
| ≤ 10 | > 100 | COc1ccc(CN2C[C@@H]3CN(c4ccc(-c5cc(OCC(C)(C)O)cn6ncc(C#N)c56)cn4)C[C@@H]3C2)cn1 [Example 14, 6-(2-hydroxy-2-methylpropoxy)-4-(6-((3aR,6aS)-5-((6-methoxypyridin-3-yl)methyl)hexahydropyrrolo[3,4-c]pyrrol-2(1H)-yl)pyridin-3-yl)pyrazolo[1,5-a]pyridine-3-carbonitrile] | 10 to 50 | – |
| ≤ 10 | 10 to 50 | CC(C)C(O)C(=O)N1C[C@@H]2CN(c3ccc(-c4cc(-c5cnn(C)c5)cn5ncc(C#N)c45)cn3)C[C@@H]2C1 (stereo partly drawn) [Example 2] | 10 to 50 | – |
| ≤ 10 | 10 to 50 | CC(C)(O)COc1cc(-c2ccc(N3C[C@@H]4[C@H](C3)[C@H]4NS(=O)(=O)c3c(F)cccc3Cl)nc2)c2c(C#N)cnn2c1 [Example 47, 2-chloro-N-((1R,5S,6s)-3-(5-(3-cyano-6-(2-hydroxy-2-methylpropoxy)pyrazolo[1,5-a]pyridin-4-yl)pyridin-2-yl)-3-azabicyclo[3.1.0]hexan-6-yl)-6-fluorobenzene-sulfonamide] | 10 to 50 | – |
| ≤ 10 | 10 to 50 | COc1ccc(CN(C)[C@H]2[C@@H]3CN(c4ccc(-c5cc(-c6cnn(C)c6)cn6ncc(C#N)c56)cn4)C[C@@H]32)cn1 [Example 34, 4-(6-((1R,5S,6s)-6-(((6-methoxypyridin-3-yl)methyl)(methyl)amino)-3-azabicyclo[3.1.0]hexan-3-yl)pyridin-3-yl)-6-(1-methyl-1H-pyrazol-4-yl)pyrazolo[1,5-a]pyridine-3-carbonitrile] | 10 to 50 | – |
| ≤ 10 | ≤ 10 | Cn1cc(-c2cc(-c3ccc(N4C[C@@H]5[C@H](C4)[C@H]5NC(=O)c4c(F)cccc4Cl)nc3)c3c(C#N)cnn3c2)cn1 [Example 24, 2-chloro-N-((1R,5S,6s)-3-(5-(3-cyano-6-(1-methyl-1H-pyrazol-4-yl)pyrazolo[1,5-a]pyridin-4-yl)pyridin-2-yl)-3-azabicyclo[3.1.0]hexan-6-yl)-6-fluorobenzamide] | 10 to 50 | – |
| ≤ 10 | ≤ 10 | Cn1cc(-c2cc(-c3ccc(N4C[C@@H]5[C@H](C4)[C@H]5NC(=O)c4cc(F)ccc4Cl)nc3)c3c(C#N)cnn3c2)cn1 [Example 28, 2-chloro-N-((1R,5S,6s)-3-(5-(3-cyano-6-(1-methyl-1H-pyrazol-4-yl)pyrazolo[1,5-a]pyridin-4-yl)pyridin-2-yl)-3-azabicyclo[3.1.0]hexan-6-yl)-5-fluorobenzamide] | 10 to 50 | – |
| ≤ 10 | ≤ 10 | Cn1cc(-c2cc(-c3ccc(N4C[C@@H]5C[C@@](C)(NC(=O)c6ncccc6F)C[C@@H]5C4)nc3)c3c(C#N)cnn3c2)cn1 [Example 91, N-((3aR,5s,6aS)-2-(5-(3-cyano-6-(1-methyl-1H-pyrazol-4-yl)pyrazolo[1,5-a]pyridin-4-yl)pyridin-2-yl)-5-methyloctahydrocyclopenta[c]pyrrol-5-yl)-3-fluoropicolinamide] | ≤ 10 | – |
| ≤ 10 | 10 to 50 | Cn1cc(-c2cc(-c3ccc(N4C[C@@H]5[C@H](C4)[C@H]5NC(=O)c4ncc(F)cc4Cl)nc3)c3c(C#N)cnn3c2)cn1 [Example 22, 3-chloro-N-((1R,5S,6s)-3-(5-(3-cyano-6-(1-methyl-1H-pyrazol-4-yl)pyrazolo[1,5-a]pyridin-4-yl)pyridin-2-yl)-3-azabicyclo[3.1.0]hexan-6-yl)-5-fluoropicolinamide] | 50 to 100 | – |
| ≤ 10 | 10 to 50 | Cn1ccc(-c2cc(-c3ccc(N4C[C@@H]5C[C@@](C)(NC(=O)c6ncccc6F)C[C@@H]5C4)nc3)c3c(C#N)cnn3c2)n1 [Example 123, N-((3aR,5s,6aS)-2-(5-(3-cyano-6-(1-methyl-1H-pyrazol-3-yl)pyrazolo[1,5-a]pyridin-4-yl)pyridin-2-yl)-5-methyloctahydrocyclopenta[c]pyrrol-5-yl)-3-fluoropicolinamide] | ≤ 10 | – |
| ≤ 10 | 50 to 100 | CCOc1cc(-c2ccc(N3C[C@@H]4C[C@@](C)(NC(=O)CC(C)C)C[C@@H]4C3)nc2)c2c(C#N)cnn2c1 [Example 62, N-((3aR,5s,6aS)-2-(5-(3-cyano-6-ethoxypyrazolo[1,5-a]pyridin-4-yl)pyridin-2-yl)-5-methyloctahydrocyclopenta[c]pyrrol-5-yl)-3-methylbutanamide] | 10 to 50 | – |
| ≤ 10 | 10 to 50 | Cc1ccc(F)cc1C(=O)NC[C@@H]1[C@H]2CN(c3ccc(-c4cc(-c5cnn(C)c5)cn5ncc(C#N)c45)cn3)C[C@@H]12 [Example 81, N-(((1R,5S,6s)-3-(5-(3-cyano-6-(1-methyl-1H-pyrazol-4-yl)pyrazolo[1,5-a]pyridin-4-yl)pyridin-2-yl)-3-azabicyclo[3.1.0]hexan-6-yl)methyl)-5-fluoro-2-methylbenzamide] | ≤ 10 | – |
| ≤ 10 | > 100 | CCOc1cc(-c2ccc(N3C[C@H]4CN(C(=O)c5ncccc5Cl)C[C@H]4C3)nc2)c2c(C#N)cnn2c1 [Example 6, 4-(6-((3aR,6aS)-5-(3-chloropicolinoyl)hexahydropyrrolo[3,4-c]pyrrol-2(1H)-yl)pyridin-3-yl)-6-ethoxypyrazolo[1,5-a]pyridine-3-carbonitrile] | 10 to 50 | – |
| ≤ 10 | 10 to 50 | Cn1cc(-c2cc(-c3ccc(N4C[C@@H]5[C@@H](CNC(=O)c6ncccc6C(F)(F)F)[C@@H]5C4)nc3)c3c(C#N)cnn3c2)cn1 [Example 86, N-(((1R,5S,6s)-3-(5-(3-cyano-6-(1-methyl-1H-pyrazol-4-yl)pyrazolo[1,5-a]pyridin-4-yl)pyridin-2-yl)-3-azabicyclo[3.1.0]hexan-6-yl)methyl)-3-(trifluoromethyl)picolinamide] | – | ≤ 10 |
| 10 to 50 | 50 to 100 | Cn1ccc(-c2cc(-c3ccc(N4C[C@@H]5C[C@@](C)(NC(=O)c6ncccc6C#N)C[C@@H]5C4)nc3)c3c(C#N)cnn3c2)n1 [Example 198, 3-cyano-N-((3aR,5s,6aS)-2-(5-(3-cyano-6-(1-methyl-1H-pyrazol-3-yl)pyrazolo[1,5-a]pyridin-4-yl)pyridin-2-yl)-5-methyloctahydrocyclopenta[c]pyrrol-5-yl)picolinamide] | 10 to 50 | – |
| ≤ 10 | > 100 | CC(O)COc1cc(-c2ccc(N3C[C@@H]4[C@@H](CNC(=O)c5ncccc5Cl)[C@@H]4C3)nc2)c2c(C#N)cnn2c1 (stereo partly drawn) [Example 124, 3-chloro-N-(((1R,5S,6s)-3-(5-(3-cyano-6-(2-hydroxypropoxy)pyrazolo[1,5-a]pyridin-4-yl)pyridin-2-yl)-3-azabicyclo[3.1.0]hexan-6-yl)methyl)picolinamide] | 10 to 50 | – |
| ≤ 10 | 10 to 50 | Cn1ccc(-c2cc(-c3cnc(N4C[C@@H]5C[C@@](C)(NC(=O)c6c(F)cccc6Cl)C[C@@H]5C4)cn3)c3c(C#N)cnn3c2)n1 [Example 100, 2-chloro-N-((3aR,5s,6aS)-2-(5-(3-cyano-6-(1-methyl-1H-pyrazol-3-yl)pyrazolo[1,5-a]pyridin-4-yl)pyrazin-2-yl)-5-methyloctahydrocyclopenta[c]pyrrol-5-yl)-6-fluorobenzamide] | ≤ 10 | – |
| 10 to 50 | 50 to 100 | COc1ccc(C(=O)N[C@H]2[C@@H]3CN(c4ccc(-c5cc(-c6cnn(C)c6)cn6ncc(C#N)c56)cc4)C[C@@H]32)cn1 [Example 15, N-((1R,5S,6s)-3-(4-(3-cyano-6-(1-methyl-1H-pyrazol-4-yl)pyrazolo[1,5-a]pyridin-4-yl)phenyl)-3-azabicyclo[3.1.0]hexan-6-yl)-6-methoxynicotinamide] | 10 to 50 | – |
| > 100 | > 100 | CCOc1cc(-c2cnc(N3C[C@@H]4[C@H](C3)[C@@H]4NC(=O)c3ncccc3Cl)cn2)c2c(C#N)cnn2c1 [Example 41, 3-chloro-N-((1R,5S,6r)-3-(5-(3-cyano-6-ethoxypyrazolo[1,5-a]pyridin-4-yl)pyrazin-2-yl)-3-azabicyclo[3.1.0]hexan-6-yl)picolinamide] | > 100 | – |
| 10 to 50 | > 100 | COc1ccc(NC(=O)N[C@H]2[C@@H]3CN(c4ccc(-c5cc(OCC(C)(C)O)cn6ncc(C#N)c56)cn4)C[C@@H]32)cn1 [Example 183, 1-((1R,5S,6s)-3-(5-(3-cyano-6-(2-hydroxy-2-methylpropoxy)pyrazolo[1,5-a]pyridin-4-yl)pyridin-2-yl)-3-azabicyclo[3.1.0]hexan-6-yl)-3-(6-methoxypyridin-3-yl)urea] | > 100 | – |
| 10 to 50 | > 100 | CC(C)(O)COc1cc(-c2ccc(N3C[C@@H]4[C@@H](CNS(=O)(=O)c5c(F)cccc5Cl)[C@@H]4C3)nc2)c2c(C#N)cnn2c1 [Example 184, 2-chloro-N-(((1R,5S,6r)-3-(5-(3-cyano-6-(2-hydroxy-2-methylpropoxy)pyrazolo[1,5-a]pyridin-4-yl)pyridin-2-yl)-3-azabicyclo[3.1.0]hexan-6-yl)methyl)-6-fluorobenzenesulfonamide] | 50 to 100 | – |
